This note sets out measurements from patent EP4501112A1, “PLANT DEFENSE ELICITORS” (Globachem NV, priority 2023, dated 2025).

Holding throughout (assay type): in vivo
In one test the test system is S. avenae. Nature of the test: Aphid survival and sucking on untreated leaves after treating one leaf of Chinese cabbage. Further details: key to S. avenae sucking: 0=no damage or no sucking observed; 1=some damage or some sucking observed; 3=half leaf eaten or half of aphids sucking the leaf; 5=no leaf left or all insects sucking and reproducing. As to conditions: for S. avenae sucking: scale 0 - 5.

In test [1] the test system is English grain aphid (Sitobion avenae). Nature of the test: Survival of S. avenae on wheat after foliar spray (greenhouse pots). As to conditions: 0.65 g pelargonic acid in 500 mL water. As to the method:
DISEASE/PEST: English grain aphid (Sitobion avenae) CROP: WHEAT (Triticum aestivum) APPLICATION: FOLIAR PROTOCOL: T. aestivum plants were grown in pots (8x8 cm) in the greenhouse until reaching a height of 10 cm. Each pot contained 50 seeds. Each treatment consisted of 3 replicates. Plants were sprayed with a handheld sprayer containing 0.65 g of pelargonic acid in 500 mL of water for the 3 replicates. Control plants were sprayed with water. Spraying solutions (as noted in the Table 1) were prepared freshly before treatment. S. avenae (N=10) were added 1 hour after spraying. Insects were counted, 1, 4, 6, 12 and 14 days after the treatment applied. Table 1. Efficacy assessment survival of S. avenae on T. aestivum (number of aphids)

A further test relates to Cacopsylly pyri. Nature of the test: Field trial, foliar spray against C. pyri on pear trees. As to conditions: 650 g/ha. An excerpt: DISEASE/PEST: Cacopsylly pyri CROP: Pear trees (pyrus communis spp. Williams) APPLICATION: Foliar spray (spring - when 50% of eggs are yellow) EXPERIMENT/TRIAL PROTOCOL: Foliar spray was applied in the field with a motorized sprayer (OleomacSP126) in spring when the insects appeared on the crop (BBCH 72-75). The trial design consisted of a randomized complete block with 4 replications per treatment. The treated area per plot was 24m^2. Used water volume was […]/ha. Evaluation was done by counting nymphs per 10 shoots. […] This is due to the effect on the plant's immune system. […] Table 6. Efficacy assessment: % efficacy versus untreated (%UNCK) of C. pyri on P. communis (field)

The test system of the next test is Meligethes Aeneus. Kind of test: Field trial, foliar spray against M. aeneus on oil seed rape. The source says:
DISEASE/[…] Aeneus CROP: Oil seed rape (Brassica napus spp. Campino) APPLICATION: Foliar spray EXPERIMENT/TRIAL PROTOCOL: Foliar spray was applied in the field with a motorized sprayer in spring when the insects appeared on the crop (BBCH 38-41). The trial design consisted of a randomized complete block with 4 replications per treatment. The treated area per plot was 30m^2. Used water volume was 300 L/ha. Evaluation was done by counting adult insects per 25 plants. […] Table 5: Efficacy assessment: % efficacy versus untreated (%UNCK) of M. aeneus on B. napus (field)

`CCCCCCCCC(=O)O` [Pelargonic acid, pelargonic acid]: the S. avenae sucking is 4 in the test with S. avenae (0.78 mg on one leaf, insects added 1h after treatment, 6 DAT); 0 with S. avenae (0.78 mg on one leaf, insects added 1h after treatment, 24h AT); 1 in the test with S. avenae (0.78 mg on one leaf, insects added 24 h after treatment, 6 DAT); 4 with S. avenae (0.78 mg on one leaf, insects added 24 h after treatment, 24h AT). In the test with S. avenae (0.78 mg on one leaf, insects on non-treated leaves, added 24 h after treatment, 6 DAT), the S. avenae survival result is given as “Very small colony”. Further, in the test on S. avenae (0.78mg, insects introduced 24h after treatment to an untreated leaf of the same plant), the “number of S. avenae individuals and sucking” value is on record as “reduction”. Moreover, the “survival of S. avenae on T. aestivum (number of aphids)” value in test [1] (4 DAT) is listed as 4.2; in test [1] (6 DAT), 7.4; in test [1] (10 aphids added 1 hour after spraying, 1 DAT), 3; in test [1] (12 DAT) it was 9.6; in test [1] (14 DAT), 15. Also, the “% efficacy versus untreated (%UNCK) of C. pyri on P. communis (field)” value in the test on Cacopsylly pyri (14 DAA) is listed as 56.4 b %; in the test on Cacopsylly pyri (21 DAA), 63.1 b %; in the test with Cacopsylly pyri (28 DAA), 100 b %; in the test with Cacopsylly pyri (800L/ha water, 3 DAA), 83.8 b %. The “% efficacy versus untreated (%UNCK) of M. aeneus on B. napus (field)” value in the test on Meligethes Aeneus (650 g/ha, 4DAA) is listed as 91 b %; with Meligethes Aeneus (650 g/ha, 8DAA), 89 b %; in the test with Meligethes Aeneus (650 g/ha, 300 L/ha water, 1DAA), 34.60 c %; in the test with Meligethes Aeneus (975 g/ha, 1DAA) it was 79.25 ab %; in the test with Meligethes Aeneus (975 g/ha, 4DAA), 100 a %; in the test on Meligethes Aeneus (975 g/ha, 8DAA) it was 100 a %.
